In US20100260680A1, “NOVEL BONE MASS INCREASING AGENT” (ORIENTAL YEAST CO., LTD., priority 2007, published 2010):
Bridges are numbered along the chain shown (N, C = ends). Where no end group is shown, it is not given here.

How the values were obtained:
MC3T3-E1 cells = test: ALP activity determination in MC3T3-E1 cells; type: cell-based, mouse; conditions: for inhibition of ALP activity enhancement caused by BMP-2: 100 ng/ml BMP-2; for inhibition of ALP activity enhancement caused by peptide D: 200 μM peptide D
Experimental: Seven days after differentiation, the culture supernatant was removed from each plate and the cells were fixed with an acetone/ethanol solution. The ALP activity was determined using p-nitrophenyl phosphate as a substrate. Specifically, a carbonate buffer (5 mM MgCl2, 50 mM NaHCO3) containing p-nitrophenyl phosphate (Nacalai) (1 mg/mL) was added to each well (100 μL/well), followed by incubation at 37° C. Then, the OD value at 405 nm was determined with the use of a microplate reader (BMG Labtech) for each well.
Cells mixed with 10% FBS+αMEM (GIBCO) were seeded on a 96-well plate (8×10^3 cells/well) and a 48-well plate (2×10^4 cells/well). The culture supernatant of each plate was replaced with 10% FBS+αMEM containing 5 mM β glycerophosphoric acid (SIGMA)+10 μg/mL sodium ascorbate (SIGMA) 48 hours later. Then, the medium was replaced with new medium every 3 or 4 days. As a control, MC3T3-E1 was cultured with the use of 10% FBS+αMEM as a maintenance medium. Upon medium replacement, a peptide was added to each plate at a concentration of 300 μM, ALP activity determination and alizarin red S staining were carried out by the method described in Example 1 on Days 7 and 21.
MC3T3-E1 cells mixed with 10% FBS+αMEM (SIGMA) were seeded on a 96-well plate (1.5×10^4 cells/well). After 12 hours, the medium was removed therefrom and a medium containing an SB203580 p38 inhibitor (Calbiochem) was added thereto. […] Then, ALP activity determination was carried out by the method described in Example 1.
Similarly, rhDkk-1 (R&D) was added as a Wnt antagonist at concentrations of 0.25, 0.5, and 1 μg/ml. After 1 hour, 200 μM peptide D was added thereto, followed by culture for 5 days. Then, ALP activity determination was carried out by the method described in Example 1.
In addition, as described above, BMPR-IA (R&D) was added as a BMP antagonist at concentrations of 0.25 and 1 μg/ml. […] Then, ALP activity determination was carried out by the method described in Example 1. […] Based on the above results, it was likely that actions of peptide D depend on BMP induction or BMP produced constantly and spontaneously by cells.
MC3T3-E1 cells mixed with 10% FBS+α MEM (SIGMA) were seeded on a 96-well plate (1.5×10^4 cells/well).
Further, peptide D and peptide E were compared with each other in terms of ALP activity enhancement actions in MC3T3-E1 cells. Peptide D and peptide E were used at concentrations of 25, 50, 100, and 200 μM for culture under the conditions described in Example 14, followed by determination of ALP activity by the method described in Example 1.
MC3T3-E1 cells (mouse osteoblast precursor cells) mixed with 10% FBS+αMEM (SIGMA) were seeded on a 96-well plate (2×10^4 cells/well). After cell adhesion, the medium was removed therefrom, followed by ALP activity determination in the cases involving the addition of 50 and 150 μM peptide D (acetate and hydrochloride). […] On Day 5 after the addition of the individual factors, the culture supernatant was removed, followed by ALP activity determination by the method described in Example 1.
MC3T3-E1 cells (mouse osteoblast precursor cells) mixed with 10% FBS+αMEM (SIGMA) were seeded on a 96-well plate (2×10^4 cells/well). After cell adhesion had taken place, the medium was removed therefrom, followed by determination of ALP activity in the cases involving the mixing of 5 ng/mLBMP-2 (produced by CHO cells) with 6.25, 12.5, 25, 50, and 100 μM synthetic peptide D. On Day 5 after the addition of the individual factors, the culture supernatant was removed, followed by ALP activity determination by the method described in Example 1.
At the end of the experiment, synergistic effects of synthetic peptide D in the form of acetate and BMP-4 (R&D) were also examined. MC3T3-E1 cells (mouse osteoblast precursor cells) mixed with 10% FBS+αMEM (SIGMA) were seeded on a 96-well plate (2×10^4 cells/well). […]

C57BL/6N mice = test: RANKL administration test, bone morphology measurement; type: in vivo, mouse
Experimental: GST-RANKL was intraperitoneally administered at 57 nmol (low dose) or at 426 nmol (high dose) to 7-week-old female C57BL/6N mice (10 individuals) every 24 hours for three times. The mice were dissected 1.5 hours after the third administration. For comparison, a group to which PBS had been administered was used as a control.
The following organs were collected from each dissected mouse: femur, tibia, cerebrum, lungs, heart, liver, thymus, spleen, kidneys, and skin. Naturally occurring lesions were observed by HE staining of the cerebrum, the lungs, the heart, the liver, the thymus, the spleen, the kidneys, and the skin.

RANKL = biological target: T1, RANKL (Homo sapiens, UniProt O14788); conditions: Aoki et al., J Clin Invest 116: 1525, 2006; cited from earlier work
T1 sequence (O14788 140-317 limits assumed): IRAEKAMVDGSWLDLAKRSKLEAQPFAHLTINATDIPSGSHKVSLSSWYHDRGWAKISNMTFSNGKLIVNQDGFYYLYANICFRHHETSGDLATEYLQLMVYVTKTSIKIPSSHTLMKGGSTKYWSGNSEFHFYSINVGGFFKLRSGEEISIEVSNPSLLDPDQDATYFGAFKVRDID

RAW264 cells = test: TRAP activity in RAW264 cells with GST-RANKL; type: cell-based
Experimental: Peptide E (SEQ ID NO: 16) was prepared from peptide D with the substitution of a single amino acid. TRAP activity and ALP activity were determined to compare peptide D and peptide E in terms of effects of causing osteoclast differentiation and osteoblast differentiation. RAW264 cells mixed with 10% FBS+αMEM (SIGMA) were seeded on a 96-well plate (2×10^3 cells/well). After confirmation of cell adhesion, the medium was replaced with 10% FBS+αMEM containing 10 nM GST-RANKL (Oriental Yeast Co., Ltd.). Peptide D and peptide E were separately added thereto at concentrations of 25, 50, 100, and 200 μM, followed by culture for 4 days. After the termination of culture, 100 μL acetone/ethanol was added to each well for cell fixation, followed by drying in a draft for 30 min.
In order to obtain a TRAP solution buffer at a concentration of 1.5 mg/mL, a solution was prepared by adjusting p-nitrophenyl phosphate (Nacalai) with 50 mM citric acid buffer and adding a 0.2 M sodium tartrate solution in a volume 1/10 that of citric acid buffer. The obtained TRAP solution buffer was added to each well in an amount of 100 μL followed by incubation at 37° C. for 45 min. Then, a 1N NaOH solution (50 μL) was added thereto to terminate the reaction. The OD value at 405 nm was determined for each well with a microplate reader (BMG Labtech) in the same manner as in Example 1.
RAW264 cells mixed with 10% FBS+αMEM (SIGMA) were seeded on a 96-well plate (2×10^3 cells/well). After cell adhesion had taken place, the medium was replaced with 10% FBS+αMEM containing 5 nM GST-RANKL (Oriental Yeast Co., Ltd.). Peptide D in the form of TFA, peptide D in the form of acetate, and peptide D in the form of hydrochloride with concentrations of 25 and 100 μM were separately added thereto, followed by culture for 4 days. After the completion of culture, acetone/ethanol (100 μL) was added to each well for cell fixation, followed by drying in a draft for 30 min. TRAP activity determination was carried out by the method described in Example 16. […] Peptide D in the form of hydrochloride was confirmed to have neither osteoblast differentiation activity nor osteoclastgenesis inhibition activity. However, peptide D in the form of acetate was confirmed to have higher osteoblast differentiation activity and lower osteoclastgenesis inhibition activity compared with peptide D in the form of TFA. […] It is also possible to produce modified peptide D having osteoblast differentiation activity alone or modified peptide D having osteoclastgenesis inhibition activity alone.

[1] = high dose 426 nmol i.p. every 24 hours, three times
[2] = compared at concentrations with almost comparable effects

C[S+]([O-])c1ccc(-c2nc(-c3ccncc3)c(-c3ccc(F)cc3)[nH]2)cc1 (centres unmarked) [SB203580, reference compound]
inhibition of ALP activity enhancement caused by BMP-2 (MC3T3-E1 cells; SB203580 1 μM, 5 days): significant inhibition of ALP activity enhancement was not observed
inhibition of ALP activity enhancement caused by peptide D (MC3T3-E1 cells; SB203580 1 μM, 5 days): Significant inhibition
inhibition of ALP activity enhancement caused by peptide D (MC3T3-E1 cells; SB203580 10 μM, 5 days): complete inhibition
inhibition of ALP activity enhancement caused by BMP-2 (MC3T3-E1 cells; SB203580 at a concentration of 10, 5 days): weak effects of inhibition

Fc fusion peptide A: fusion protein of peptide A (SEQ ID NO: 47, YCAAAAACY) and Fc; negative control [reference compound]
ALP activity (MC3T3-E1 cells; concentrated COS-1 culture supernatant diluted with αMEM, Day 5): such ALP activity enhancement action was not observed

GST-RANKL: GST fusion protein with amino acids 140 to 317 of human RANKL (SEQ ID NO: 15)
HE staining of cerebrum, lungs, heart, liver, thymus, spleen, kidneys, skin (C57BL/6N mice; any group (57 nmol, 426 nmol)): abnormal findings and naturally occurring lesions were not observed
osteoclast number (C57BL/6N mice; [1]): increased
trabecular number (C57BL/6N mice; [1]): approximately 50%
unit bone mass (C57BL/6N mice; [1]): approximately 50%
osteoblast surface area (C57BL/6N mice; high-dose administration): significantly increased
femur bone morphology by μCT (C57BL/6N mice; high-dose administration group): significant bone decrease
unit bone mass and trabecular number (C57BL/6N mice; low dose 57 nmol i.p. every 24 hours, three times): no such decrease was observed
inhibition of synergistic ALP activity enhancement of peptide D (acetate) and BMP-2 (MC3T3-E1 cells; 100 nM, 100 μM peptide D acetate + 5 ng/mL BMP-2, Day 5): significantly inhibited synergistic effects

peptide E: SEQ ID NO: 16, prepared from peptide D with the substitution of a single amino acid; cyclic, Cys2-Cys8 disulfide (YCWSQNLCY; disulfide 2-8)
affinity to sRANKL relative to the initial level (peptide D) (RANKL): approximately ⅓
TRAP activity (RAW264 cells; 25, 50, 100 and 200 μM, 10 nM GST-RANKL, 4 days): inhibit TRAP activity
TRAP activity inhibition actions relative to the initial level (peptide D) (RAW264 cells; [2]): one-half
ALP activity (MC3T3-E1 cells; 25, 50, 100 and 200 μM, 5 days): enhance ALP activity in a concentration-dependent manner
ALP activity enhancement actions relative to the initial level (peptide D) (MC3T3-E1 cells; [2]): approximately ¼

B1: Dkk-1: rhDkk-1 (R&D), Wnt antagonist (protein, UniProt O94907 32-266, looked up)
Dickkopf-related protein 1: TLNSVLNSNAIKNLPPPLGGAAGHPGSAVSAAPGILYPGGNKYQTIDNYQPYPCAEDEECGTDEYCASPTRGGDAGVQICLACRKRRKRCMRHAMCCPGNYCKNGICVSSDQNHFRGEIEETITESFGNDHSTLDGYSRRTTLSSKMYHTKGQEGSVCLRSSDCASGLCCARHFWSKICKPVLKEGQVCTKHRRKGSHGLEIFQRCYCGEGLSCRIQKDHHQASNSSRLHTCQRH
inhibition of ALP activity enhancement caused by peptide D (MC3T3-E1 cells; rhDkk-1 0.25, 0.5 and 1 μg/ml, 5 days): weakly but significantly inhibit

B2: BMPR-IA: BMPR-IA (R&D), BMP antagonist (protein, UniProt P36894 24-152, looked up)
extracellular domain: QNLDSMLHGTGMKSDSDQKKSENGVTLAPEDTLPFLKCYCSGHCPDDAINNTCITNGHCFAIIEEDDQGETTLASGCMKYEGSDFQCKDSPKAQLRRTIECCRTNLCNQYLQPTLPPVVIGPFFDGSIR
modifications: extracellular domain soluble reagent
notes: BMPR-IA (R&D), BMP antagonist
inhibition of ALP activity enhancement caused by peptide D and BMP-2 (MC3T3-E1 cells; BMPR-IA 0.25 and 1 μg/ml, 200 μM peptide D or 200 ng/ml BMP-2, 5 days): significantly inhibit
